Laboratory results from US9271978B2 (Zenith Epigenetics Corp., priority 2012, dated 2016).

Experiments:
c-myc = assay: Inhibition of c-myc expression in MV4-11 cells (mRNA, real-time PCR); type: cell-based; design: key: Active: Compounds with an IC50 value less than 30 μM were deemed to be active.; Not Active: Compounds with an IC50 value less than 30 μM were deemed to be active; settings: Human AML MV4-11 cells, 3 h incubation
Method in brief: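 Duplex RT-qPCR of c-myc against cyclophilin cDNA gave IC50 from a dose–response curve. Input was isolated mRNA from 2.5×10^4 MV4-11 cells after 3 h exposure at 37 °C to compound or 0.1% DMSO vehicle.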

[1] = system: human AML MV-4-11 (CRL-9591) cells; assay: Inhibition of cell proliferation in MV4-11 cells; type: cell-based; design: key: Active: Compounds with an IC50 value less than 30 μM were deemed to be active.; Not Active: Compounds with an IC50 value less than 30 μM were deemed to be active; settings: human AML MV-4-11 cells, 72 h; active = IC50 <30 μM
Method in brief: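 IC50 values come from blank-corrected proliferation relative to DMSO controls, read as 490 nm absorbance 3–4 h after CellTiter Aqueous One addition. Before that, cells seeded at 5×10^4/well were exposed for 72 h (37° C, 5% CO2) to triplicate two-fold compound dilutions spanning 30–0.2 μM.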

ApoA-I mRNA = assay: Up-regulation of hApoA-1 mRNA transcription in Huh7 cells; type: cell-based, human; design: key: Active: Compounds with an EC170 value less than 30 μM were deemed to be active; settings: 48 h treatment, ApoA-I mRNA by real-time PCR, Active = EC170 less than 30 μM
Method in brief: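 Huh7 cells treated with compound for 48 h. ApoA-I mRNA was then quantified in captured mRNA by one-step real-time RT-PCR. Fold induction calculated from Ct values relative to the matching DMSO control; EC170 is the concentration for 170% of control expression.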

hIL-6 mRNA = assay: Inhibition of hIL-6 mRNA transcription in U937 cells; type: cell-based, human; design: key: Active: Compounds with an IC50 value less than 30 μM were deemed to be active.; Not Active: Compounds with an IC50 value less than 30 μM were deemed to be active; settings: LPS stimulation, active = IC50 <30 μM
Method in brief: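 Readout is one-step real-time PCR of hIL-6 mRNA, normalized to an internal control and given as fold induction versus control. Cells: PMA (60 ng/mL, 3 days)-differentiated U937 macrophages, compound added 1 h before 1 ug/mL LPS, harvested after 3 h at 37° C.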

Cc1noc(C)c1-c1ccc(=O)n(Cc2ccccc2)c1 [Example 56, 1-Benzyl-5-(3,5-dimethylisoxazol-4-yl)pyridin-2(1H)-one]
Active: c-myc activity (IC50 <30 μM) (c-myc) | Cell Proliferation activity (IC50 <30 μM) [1] | ApoA-1 activity (EC170 <30 μM) (ApoA-I mRNA) | IL-6 activity (IC50 <30 μM) (hIL-6 mRNA)

Cc1noc(C)c1-c1cc(N)c(=O)n(Cc2ccccc2)c1 [Example 73, 3-Amino-1-benzyl-5-(3,5-dimethylisoxazol-4-yl)pyridin-2(1H)-one]
Active: c-myc activity (IC50 <30 μM) (c-myc) | Cell Proliferation activity (IC50 <30 μM) [1] | ApoA-1 activity (EC170 <30 μM) (ApoA-I mRNA) | IL-6 activity (IC50 <30 μM) (hIL-6 mRNA)

Cc1noc(C)c1-c1ccc(=O)n(Cc2ccc(Cl)cc2)c1 [Example 128, 1-(4-Chlorobenzyl)-5-(3,5-dimethylisoxazol-4-yl)pyridin-2(1H)-one]
Active: c-myc activity (IC50 <30 μM) (c-myc) | Cell Proliferation activity (IC50 <30 μM) [1] | ApoA-1 activity (EC170 <30 μM) (ApoA-I mRNA) | IL-6 activity (IC50 <30 μM) (hIL-6 mRNA)

Cc1noc(C)c1-c1ccc(=O)n([C@H](C)c2ccccc2)c1 [Example 134, (R)-5-(3,5-Dimethylisoxazol-4-yl)-1-(1-phenylethyl)pyridin-2(1H)-one]
Active: c-myc activity (IC50 <30 μM) (c-myc) | Cell Proliferation activity (IC50 <30 μM) [1] | ApoA-1 activity (EC170 <30 μM) (ApoA-I mRNA) | IL-6 activity (IC50 <30 μM) (hIL-6 mRNA)

Cc1noc(C)c1-c1cc(N)c(=O)n(Cc2ccc(F)cc2)c1 [Example 180, 3-amino-5-(3,5-dimethylisoxazol-4-yl)-1-(4-fluorobenzyl)pyridin-2(1H)-one]
Active: c-myc activity (IC50 <30 μM) (c-myc) | Cell Proliferation activity (IC50 <30 μM) [1] | ApoA-1 activity (EC170 <30 μM) (ApoA-I mRNA) | IL-6 activity (IC50 <30 μM) (hIL-6 mRNA)

Cc1noc(C)c1-c1cc(N)c(=O)n(Cc2ccsc2)c1 [Example 219, 3-amino-5-(3,5-dimethylisoxazol-4-yl)-1-(thiophen-3-ylmethyl)pyridin-2(1H)-one]
Active: c-myc activity (IC50 <30 μM) (c-myc) | Cell Proliferation activity (IC50 <30 μM) [1] | ApoA-1 activity (EC170 <30 μM) (ApoA-I mRNA) | IL-6 activity (IC50 <30 μM) (hIL-6 mRNA)

Cc1noc(C)c1-c1cc(N)c(=O)n(Cc2ccc(Br)cc2)c1 [Example 241, 3-Amino-1-(4-bromobenzyl)-5-(3,5-dimethylisoxazol-4-yl)pyridin-2(1H)-one]
Active: c-myc activity (IC50 <30 μM) (c-myc) | Cell Proliferation activity (IC50 <30 μM) [1] | ApoA-1 activity (EC170 <30 μM) (ApoA-I mRNA) | IL-6 activity (IC50 <30 μM) (hIL-6 mRNA)
